The results in this text go back to patent publication US12286442B2, “Methods and materials for increasing transcription factor eb polypeptide levels” (University of Pittsburgh—Of the Commonwealth System of …, priority 2019, dated 2025).

Structures are written as SMILES.

One data set concerns BEAS-2B cells. Description: Toxicity: compound concentration needed to induce greater than 50 percent of cell loss. The conditions noted are these: 18 hours incubation. The format is cell-based, human. The protocol: (§1) Approximately 2300 primary and immortalized human bronchial epithelial cells (BEAS-2B) stably expressing TFEB-EGFP in 25 μL of HITEs media with 10% FBS were dispensed into 384 well plate (Black with glass bottom) and incubated for 8 hours. Compound serial dilution (DMEM low glucose media with 2% FBS, 25 μL volume) were prepared using a robotic liquid hander. Compound solution were then added to the cell plate and incubated for 18 hours. Cells were then fixed with 4% PFA followed by DAPI staining. TFEB localization was imaged on the GFP channel along with the DAPI signal using a Cytation 5 high content imager. Images were processed through Biotek Gen5 software. Specifically, the DAPI signal was used as the primary mask to quantify the nuclear TFEB-GFP signal. Cytosolic TFEB-GFP signal was quantified through expanding the primary mask. The TFEB nuclear/cytosol ratios were calculated from nuclear TFEB-GFP signal/cytosol TFEB-GFP signal, which determined the compound efficacies.
Toxicity was determined by determining the compound concentration needed to induce greater than 50 percent of cell loss. For toxicity, cell loss of greater than 50 percent at a concentration that equals or is greater than 25 μM was represented as cell loss of greater than 50 percent at a concentration less than 25 μM and greater than 1 μM was represented as and cell loss of greater than 50 percent at a concentration that equals or is less than 1 μM was represented as “+++.” The assay results for compounds 1-202, 214-248, 332, 333, and 352-402 are shown in Table A.

A further data set deals with TFEB. Nature of the data set: High content screen measuring TFEB nuclear accumulation (TFEB nuclear/cytosol ratio) in BEAS-2B cells stably expressing TFEB-EGFP. The format is cell-based, human. The following applies: 18 hours incubation. On the procedure:
FIG. 3. High content screen assay (384 well) measuring TFEB nuclear accumulation. Approximately 2500 primary and immortalized human bronchial epithelial cells (BEAS-2B) stably expressing TFEB-EGFP in 25 μL of HITEs media with 10% FBS were dispensed into 384 well plate (Black with glass bottom) and incubated for 8 hours. Compound serial dilution (DMEM low glucose media with 2% FBS, 25 μL volume) were prepared using a robotic liquid hander. Compound solutions were then added to the cell plate and incubated for 18 hours. Cells were then fixed with 4% PFA followed by DAPI staining. TFEB localization was imaged on the GFP channel along with the DAPI signal using a Cytation 5 high content imager. Images were processed through Biotek Gen5 software; specifically, the DAPI signal was used as the primary mask to quantify the nuclear TFEB-GFP signal. The cytosolic TFEB-GFP signal was quantified through expanding the primary mask. The TFEB nuclear/cytosol ratios were calculated from nuclear TFEB-GFP signal/cytosol TFEB-GFP signal, which determined the compound efficacy. […] Compound activities (μM) were determined by the minimal compound concentration needed to increase TFEB nuclear/cytosol ratio by 25%. Activity: “−” equals >25 μM; “+” equals between 25 μM and >10 μM; “++” equals between ≤10 μM and >1 μM; and “+++” equals […]. N=4.
as §1
Compounds efficacies (μM) were determined by the minimal compound concentration needed to increase TFEB nuclear/cytosol ratio by 25%. Activity: “+” equals >25 μM; “++” equals between ≤25 μM and >1 μM; and “+++” equals ≤1 μM.
A high-content imaging screen was conducted using Beas2B cells that stably express GFP-TFEB.

With `CC(=O)c1cc(F)cc(Nc2nc(-c3ccncc3)nc3ccccc23)c1` [Compound 51], in the data set with BEAS-2B cells, the “toxicity (compound concentration needed to induce greater than 50 percent of cell loss)” value is reported as “+ (cell loss of greater than 50 percent at a concentration that equals or is greater than 25 μM was represented as)”. Besides, in the data set with TFEB, the “efficacy (minimal compound concentration needed to increase TFEB nuclear/cytosol ratio by 25%)” value was “+ (“+” equals >25 μM)”.

With `CC(=O)c1cc(C)cc(Nc2nc(-c3ccncc3)nc3ccccc23)c1` [Compound 52], in the data set with BEAS-2B cells, the “toxicity (compound concentration needed to induce greater than 50 percent of cell loss)” value is recorded as “+ (cell loss of greater than 50 percent at a concentration that equals or is greater than 25 μM was represented as)”. Besides, the “efficacy (minimal compound concentration needed to increase TFEB nuclear/cytosol ratio by 25%)” value in the data set with TFEB is reported as “+ (“+” equals >25 μM)”.

On to `Cc1cc(F)cc(Nc2nc(-c3ccncc3C)nc3ccccc23)c1` [Compound 53], for which the “toxicity (compound concentration needed to induce greater than 50 percent of cell loss)” value in the data set on BEAS-2B cells is on record as “+ (cell loss of greater than 50 percent at a concentration that equals or is greater than 25 μM was represented as)”. Also, the “efficacy (minimal compound concentration needed to increase TFEB nuclear/cytosol ratio by 25%)” value in the data set with TFEB was “+ (“+” equals >25 μM)”.

Consider `Cc1cccc(Nc2nc(-c3ccncc3C)nc3ccccc23)c1` [Compound 54], for which, in the data set with BEAS-2B cells, the “toxicity (compound concentration needed to induce greater than 50 percent of cell loss)” value is on record as “+ (cell loss of greater than 50 percent at a concentration that equals or is greater than 25 μM was represented as)”. In the data set with TFEB, the “efficacy (minimal compound concentration needed to increase TFEB nuclear/cytosol ratio by 25%)” value is recorded as “+ (“+” equals >25 μM)”.

Turning to `Cc1cc(Br)cc(Nc2nc(-c3ccncc3)nc3ccccc23)c1` [Compound 55], the “toxicity (compound concentration needed to induce greater than 50 percent of cell loss)” value with BEAS-2B cells was “+ (cell loss of greater than 50 percent at a concentration that equals or is greater than 25 μM was represented as)”. Moreover, in the data set with TFEB, the “efficacy (minimal compound concentration needed to increase TFEB nuclear/cytosol ratio by 25%)” value is given as “+ (“+” equals >25 μM)”.

On to `Nc1ccc(Nc2nc(-c3ccncc3)nc3ccccc23)cc1` [Compound 56], for which the “toxicity (compound concentration needed to induce greater than 50 percent of cell loss)” value with BEAS-2B cells was “+ (cell loss of greater than 50 percent at a concentration that equals or is greater than 25 μM was represented as)”. Further, the “efficacy (minimal compound concentration needed to increase TFEB nuclear/cytosol ratio by 25%)” value in the data set with TFEB was “++ (“++” equals between ≤25 μM and >1 μM)”.

Regarding `c1cnc2ccc(Nc3nc(-c4ccncc4)nc4ccccc34)cc2c1` [Compound 57], the “toxicity (compound concentration needed to induce greater than 50 percent of cell loss)” value with BEAS-2B cells is on record as “+ (cell loss of greater than 50 percent at a concentration that equals or is greater than 25 μM was represented as)”. Also, in the data set with TFEB, the “efficacy (minimal compound concentration needed to increase TFEB nuclear/cytosol ratio by 25%)” value is listed as “+++ (“+++” equals ≤1 μM)”.

With `Cc1cc(Nc2nc(-c3ccncc3)nc3ccccc23)ccc1N` [Compound 58], the “toxicity (compound concentration needed to induce greater than 50 percent of cell loss)” value with BEAS-2B cells is “+ (cell loss of greater than 50 percent at a concentration that equals or is greater than 25 μM was represented as)”. Also, in the data set with TFEB, the “efficacy (minimal compound concentration needed to increase TFEB nuclear/cytosol ratio by 25%)” value is “++ (“++” equals between ≤25 μM and >1 μM)”.

`CNc1ccc(Nc2nc(-c3ccncc3)nc3ccccc23)cc1` [Compound 59]: the “toxicity (compound concentration needed to induce greater than 50 percent of cell loss)” value with BEAS-2B cells is recorded as “+ (cell loss of greater than 50 percent at a concentration that equals or is greater than 25 μM was represented as)”. Besides, the “efficacy (minimal compound concentration needed to increase TFEB nuclear/cytosol ratio by 25%)” value in the data set on TFEB was “++ (“++” equals between ≤25 μM and >1 μM)”.

As to `NC1CCC(Nc2nc(-c3ccncc3)nc3ccccc23)CC1` (stereo not shown) [Compound 60], in the data set on BEAS-2B cells, the “toxicity (compound concentration needed to induce greater than 50 percent of cell loss)” value was “+ (cell loss of greater than 50 percent at a concentration that equals or is greater than 25 μM was represented as)”. Further, in the data set on TFEB, the “efficacy (minimal compound concentration needed to increase TFEB nuclear/cytosol ratio by 25%)” value is on record as “+ (“+” equals >25 μM)”.

As for `Cc1c(Nc2nc(-c3ccncc3)nc3ccccc23)ccc2[nH]ccc12` [Compound 61], in the data set on BEAS-2B cells, the “toxicity (compound concentration needed to induce greater than 50 percent of cell loss)” value is “++ (cell loss of greater than 50 percent at a concentration less than 25 μM and greater than 1 μM was represented as)”. Further, in the data set with TFEB, the “efficacy (minimal compound concentration needed to increase TFEB nuclear/cytosol ratio by 25%)” value is “+++ (“+++” equals ≤1 μM)”.

With `Cc1cc2cc(Nc3nc(-c4ccncc4)nc4ccccc34)ccc2[nH]1` [Compound 62], the “toxicity (compound concentration needed to induce greater than 50 percent of cell loss)” value in the data set on BEAS-2B cells is recorded as “+++ (cell loss of greater than 50 percent at a concentration that equals or is less than 1 μM was represented as “+++.”)”. Besides, the “efficacy (minimal compound concentration needed to increase TFEB nuclear/cytosol ratio by 25%)” value in the data set with TFEB was “+++ (“+++” equals ≤1 μM)”.

On to `Oc1ccc(-c2nc(Nc3ccc4[nH]ccc4c3)c3ccccc3n2)cc1` [Compound 63], for which the “toxicity (compound concentration needed to induce greater than 50 percent of cell loss)” value in the data set with BEAS-2B cells is given as “+ (cell loss of greater than 50 percent at a concentration that equals or is greater than 25 μM was represented as)”. Further, in the data set with TFEB, the “efficacy (minimal compound concentration needed to increase TFEB nuclear/cytosol ratio by 25%)” value is recorded as “+ (“+” equals >25 μM)”.

As for `Oc1ccc(-c2nc(Nc3ccc4[nH]ncc4c3)c3ccccc3n2)cc1` [Compound 64], in the data set on BEAS-2B cells, the “toxicity (compound concentration needed to induce greater than 50 percent of cell loss)” value was “++ (cell loss of greater than 50 percent at a concentration less than 25 μM and greater than 1 μM was represented as)”. For the same compound, in the data set with TFEB, the “efficacy (minimal compound concentration needed to increase TFEB nuclear/cytosol ratio by 25%)” value was “++ (“++” equals between ≤25 μM and >1 μM)”.

Regarding `Oc1ccc(-c2nc(Nc3cccc(F)c3)c3ccccc3n2)cc1` [Compound 65], the “toxicity (compound concentration needed to induce greater than 50 percent of cell loss)” value in the data set with BEAS-2B cells was “+ (cell loss of greater than 50 percent at a concentration that equals or is greater than 25 μM was represented as)”. Besides, the “efficacy (minimal compound concentration needed to increase TFEB nuclear/cytosol ratio by 25%)” value in the data set with TFEB is listed as “+ (“+” equals >25 μM)”.

Regarding `[O-][n+]1ccc(-c2nc(Nc3ccc4[nH]ccc4c3)c3ccccc3n2)cc1` [Compound 66], in the data set with BEAS-2B cells, the “toxicity (compound concentration needed to induce greater than 50 percent of cell loss)” value is “+ (cell loss of greater than 50 percent at a concentration that equals or is greater than 25 μM was represented as)”. Moreover, the “efficacy (minimal compound concentration needed to increase TFEB nuclear/cytosol ratio by 25%)” value in the data set with TFEB is given as “+ (“+” equals >25 μM)”.

As to `c1ccc2c(Nc3ccc4[nH]ccc4c3)cc(-c3ccncc3)nc2c1` [Compound 67], the “toxicity (compound concentration needed to induce greater than 50 percent of cell loss)” value in the data set with BEAS-2B cells is “+ (cell loss of greater than 50 percent at a concentration that equals or is greater than 25 μM was represented as)”. Moreover, the “efficacy (minimal compound concentration needed to increase TFEB nuclear/cytosol ratio by 25%)” value with TFEB is listed as “+ (“+” equals >25 μM)”.

In the case of `c1ccc2c(Nc3ccc4[nH]ncc4c3)cc(-c3ccncc3)nc2c1` [Compound 68], the “toxicity (compound concentration needed to induce greater than 50 percent of cell loss)” value in the data set on BEAS-2B cells was “+ (cell loss of greater than 50 percent at a concentration that equals or is greater than 25 μM was represented as)”. Besides, the “efficacy (minimal compound concentration needed to increase TFEB nuclear/cytosol ratio by 25%)” value in the data set with TFEB is “+ (“+” equals >25 μM)”.

As for `Fc1cccc(Nc2cc(-c3ccncc3)nc3ccccc23)c1` [Compound 69], in the data set on BEAS-2B cells, the “toxicity (compound concentration needed to induce greater than 50 percent of cell loss)” value is recorded as “+ (cell loss of greater than 50 percent at a concentration that equals or is greater than 25 μM was represented as)”. Moreover, the “efficacy (minimal compound concentration needed to increase TFEB nuclear/cytosol ratio by 25%)” value in the data set with TFEB is on record as “+ (“+” equals >25 μM)”.

For the compound `CC(=O)n1ccc2cc(Nc3nc(-c4ccncc4)nc4ccccc34)ccc21` [Compound 70], in the data set with BEAS-2B cells, the “toxicity (compound concentration needed to induce greater than 50 percent of cell loss)” value is reported as “+ (cell loss of greater than 50 percent at a concentration that equals or is greater than 25 μM was represented as)”. The “efficacy (minimal compound concentration needed to increase TFEB nuclear/cytosol ratio by 25%)” value in the data set on TFEB is recorded as “+++ (“+++” equals ≤1 μM)”.

As for `Fc1cc(Nc2nc(-c3ccncc3)nc3ccccc23)cc2cc[nH]c12` [Compound 71], the “toxicity (compound concentration needed to induce greater than 50 percent of cell loss)” value in the data set on BEAS-2B cells was “+ (cell loss of greater than 50 percent at a concentration that equals or is greater than 25 μM was represented as)”. Besides, the “efficacy (minimal compound concentration needed to increase TFEB nuclear/cytosol ratio by 25%)” value in the data set with TFEB was “+++ (“+++” equals ≤1 μM)”.

`CCN(c1ccc2[nH]ccc2c1)c1nc(-c2ccncc2)nc2ccccc12` [Compound 72]: in the data set with BEAS-2B cells, the “toxicity (compound concentration needed to induce greater than 50 percent of cell loss)” value was “+++ (cell loss of greater than 50 percent at a concentration that equals or is less than 1 μM was represented as “+++.”)”. The “efficacy (minimal compound concentration needed to increase TFEB nuclear/cytosol ratio by 25%)” value in the data set on TFEB is recorded as “+++ (“+++” equals ≤1 μM)”.

For `c1ccc2c(Nc3ccc4[nH]c5c(c4c3)CCCC5)nc(-c3ccncc3)nc2c1` [Compound 73], in the data set on BEAS-2B cells, the “toxicity (compound concentration needed to induce greater than 50 percent of cell loss)” value is recorded as “+++ (cell loss of greater than 50 percent at a concentration that equals or is less than 1 μM was represented as “+++.”)”. The “efficacy (minimal compound concentration needed to increase TFEB nuclear/cytosol ratio by 25%)” value with TFEB was “+++ (“+++” equals ≤1 μM)”.
